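96-well plates; 48 h exposure; 5 concentrations. Endpoints by linear interpolation between flanking doses. Not reached: highest tested concentration assigned. GI50: concentration for 50% inhibition of growth. TGI is the concentration that stops growth completely.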
Columns and labels:
Assay in all cases: NCI anticancer screen, dose series, 48 h
DU-145 prostate = tested on: DU-145 prostate
NCI-H226 lung = tested on: NCI-H226 lung
T-47D breast = tested on: T-47D breast
RPMI-8226 leukemia = tested on: RPMI-8226 leukemia
SF-268 CNS = tested on: SF-268 CNS
SK-OV-3 ovarian = tested on: SK-OV-3 ovarian
NCI-H460 lung = tested on: NCI-H460 lung
HL-60(TB) leukemia = tested on: HL-60(TB) leukemia
MALME-3M melanoma = tested on: MALME-3M melanoma
SNB-19 CNS = tested on: SNB-19 CNS
HOP-92 NSCLC = tested on: HOP-92 NSCLC
UACC-257 melanoma = tested on: UACC-257 melanoma
NCI-H23 lung = tested on: NCI-H23 lung
LOX IMVI melanoma = tested on: LOX IMVI melanoma
OVCAR-3 ovarian = tested on: OVCAR-3 ovarian
U251 CNS = tested on: U251 CNS
HT29 colon = tested on: HT29 colon
MDA-MB-231 breast = tested on: MDA-MB-231 breast
RXF 393 renal = tested on: RXF 393 renal
NCI/ADR-RES ovarian = tested on: NCI/ADR-RES ovarian
SK-MEL-2 melanoma = tested on: SK-MEL-2 melanoma
SR leukemia = tested on: SR leukemia
UO-31 renal = tested on: UO-31 renal
A498 renal = tested on: A498 renal
IGROV1 ovarian = tested on: IGROV1 ovarian
MDA-MB-435 = tested on: MDA-MB-435
CCRF-CEM leukemia = tested on: CCRF-CEM leukemia
KM12 colon = tested on: KM12 colon
OVCAR-4 ovarian = tested on: OVCAR-4 ovarian
HS 578T breast = tested on: HS 578T breast
SK-MEL-5 melanoma = tested on: SK-MEL-5 melanoma
SNB-75 CNS = tested on: SNB-75 CNS
TK-10 renal = tested on: TK-10 renal
MCF7 breast = tested on: MCF7 breast
NCI-H522 lung = tested on: NCI-H522 lung
BT-549 breast = tested on: BT-549 breast
A549 NSCLC = tested on: A549 NSCLC
SW-620 colon = tested on: SW-620 colon
HCT-116 colon = tested on: HCT-116 colon
OVCAR-5 ovarian = tested on: OVCAR-5 ovarian
M14 melanoma = tested on: M14 melanoma
EKVX NSCLC = tested on: EKVX NSCLC
HOP-62 NSCLC = tested on: HOP-62 NSCLC
OVCAR-8 ovarian = tested on: OVCAR-8 ovarian
CAKI-1 renal = tested on: CAKI-1 renal
SK-MEL-28 melanoma = tested on: SK-MEL-28 melanoma
SN12C renal = tested on: SN12C renal
K-562 leukemia = tested on: K-562 leukemia
UACC-62 melanoma = tested on: UACC-62 melanoma
MOLT-4 leukemia = tested on: MOLT-4 leukemia
HCC-2998 colon = tested on: HCC-2998 colon
SF-295 CNS = tested on: SF-295 CNS
HCT-15 colon = tested on: HCT-15 colon
PC-3 prostate = tested on: PC-3 prostate
COLO 205 colon = tested on: COLO 205 colon
ACHN renal = tested on: ACHN renal
786-0 renal = tested on: 786-0 renal

With `CCCCN(CCCC)CC(C)(C)C(O)c1ccc(OC)c2ccccc12` (centres undefined) as the molecule, how does the GI50 (DU-145 prostate) read?
The GI50 was 10.2 µM.

What about the TGI (DU-145 prostate) of the same molecule?
The TGI was 52.3 µM.

What about the GI50 (NCI-H226 lung) of the same molecule?
The GI50 was 2.42 µM.

What about the TGI (NCI-H226 lung) of the same molecule?
The TGI was 9.24 µM.

And the GI50 (T-47D breast)?
Its GI50 is 3.77 µM.

And the TGI (T-47D breast)?
Its TGI is 17 µM.

And the GI50 (RPMI-8226 leukemia)?
Its GI50 is 2.5 µM.

And the TGI (RPMI-8226 leukemia)?
Its TGI is 5.93 µM.

What about the GI50 (SF-268 CNS) of the same molecule?
The GI50 was 12.6 µM.

What about the TGI (SF-268 CNS) of the same molecule?
Its TGI is 38.3 µM.

And the GI50 (SK-OV-3 ovarian)?
Its GI50 is 5.29 µM.

And the TGI (SK-OV-3 ovarian)?
Its TGI is 28.7 µM.

What about the GI50 (NCI-H460 lung) of the same molecule?
The GI50 was 3.52 µM.

What about the TGI (NCI-H460 lung) of the same molecule?
Its TGI is 16.5 µM.

And the GI50 (HL-60(TB) leukemia)?
Its GI50 is 2.98 µM.

And the TGI (HL-60(TB) leukemia)?
Its TGI is 15.8 µM.

What about the GI50 (MALME-3M melanoma) of the same molecule?
The GI50 was 3.02 µM.

What about the TGI (MALME-3M melanoma) of the same molecule?
The TGI was 16.6 µM.

What about the GI50 (SNB-19 CNS) of the same molecule?
Its GI50 is 10.6 µM.

What about the TGI (SNB-19 CNS) of the same molecule?
The TGI was 28.6 µM.

And the GI50 (HOP-92 NSCLC)?
The GI50 was 3.11 µM.

What about the TGI (HOP-92 NSCLC) of the same molecule?
The TGI was 8.81 µM.

And the GI50 (UACC-257 melanoma)?
The GI50 was 6.31 µM.

And the TGI (UACC-257 melanoma)?
The TGI was 23.8 µM.

And the GI50 (NCI-H23 lung)?
Its GI50 is 2.29 µM.

And the TGI (NCI-H23 lung)?
The TGI was 9.36 µM.

And the GI50 (LOX IMVI melanoma)?
The GI50 was 5.53 µM.

And the TGI (LOX IMVI melanoma)?
The TGI was 19.4 µM.

What about the GI50 (OVCAR-3 ovarian) of the same molecule?
Its GI50 is 2.84 µM.

And the TGI (OVCAR-3 ovarian)?
The TGI was 13.9 µM.

What about the GI50 (U251 CNS) of the same molecule?
Its GI50 is 3.47 µM.

What about the TGI (U251 CNS) of the same molecule?
Its TGI is 13.4 µM.

And the GI50 (HT29 colon)?
The GI50 was 0.875 µM.

And the TGI (HT29 colon)?
Its TGI is 13.4 µM.

What about the GI50 (MDA-MB-231 breast) of the same molecule?
Its GI50 is 6.76 µM.

And the TGI (MDA-MB-231 breast)?
The TGI was 21.9 µM.

And the GI50 (RXF 393 renal)?
Its GI50 is 1.5 µM.

What about the TGI (RXF 393 renal) of the same molecule?
Its TGI is 4.51 µM.

And the GI50 (NCI/ADR-RES ovarian)?
The GI50 was 6.13 µM.

What about the TGI (NCI/ADR-RES ovarian) of the same molecule?
The TGI was 23.8 µM.

And the GI50 (SK-MEL-2 melanoma)?
Its GI50 is 5.11 µM.

And the TGI (SK-MEL-2 melanoma)?
Its TGI is 17.7 µM.

What about the GI50 (SR leukemia) of the same molecule?
The GI50 was 2.89 µM.

What about the TGI (SR leukemia) of the same molecule?
The TGI was 8.34 µM.

And the GI50 (UO-31 renal)?
Its GI50 is 3.02 µM.

What about the TGI (UO-31 renal) of the same molecule?
Its TGI is 17.4 µM.

And the GI50 (A498 renal)?
The GI50 was 4.27 µM.

And the TGI (A498 renal)?
Its TGI is 22.9 µM.

What about the GI50 (IGROV1 ovarian) of the same molecule?
The GI50 was 1.69 µM.

What about the TGI (IGROV1 ovarian) of the same molecule?
Its TGI is 14.1 µM.

And the GI50 (MDA-MB-435)?
Its GI50 is 5.05 µM.

And the TGI (MDA-MB-435)?
Its TGI is 28.6 µM.

What about the GI50 (CCRF-CEM leukemia) of the same molecule?
The GI50 was 5.13 µM.

And the TGI (CCRF-CEM leukemia)?
Its TGI is 26.7 µM.

What about the GI50 (KM12 colon) of the same molecule?
The GI50 was 3.31 µM.

And the TGI (KM12 colon)?
Its TGI is 16.5 µM.

What about the GI50 (OVCAR-4 ovarian) of the same molecule?
Its GI50 is 0.385 µM.

What about the TGI (OVCAR-4 ovarian) of the same molecule?
Its TGI is 23.5 µM.

And the GI50 (HS 578T breast)?
The GI50 was 4.55 µM.

And the TGI (HS 578T breast)?
Its TGI is 27 µM.

What about the GI50 (SK-MEL-5 melanoma) of the same molecule?
The GI50 was 2 µM.

What about the TGI (SK-MEL-5 melanoma) of the same molecule?
The TGI was 4.95 µM.

And the GI50 (SNB-75 CNS)?
The GI50 was 6.31 µM.

And the TGI (SNB-75 CNS)?
Its TGI is 30.3 µM.

And the GI50 (TK-10 renal)?
Its GI50 is 8.02 µM.

And the TGI (TK-10 renal)?
The TGI was 24.3 µM.

And the GI50 (MCF7 breast)?
The GI50 was 3.55 µM.

And the TGI (MCF7 breast)?
The TGI was 15.4 µM.

And the GI50 (NCI-H522 lung)?
The GI50 was 4.18 µM.

What about the TGI (NCI-H522 lung) of the same molecule?
The TGI was 18.5 µM.

What about the GI50 (BT-549 breast) of the same molecule?
Its GI50 is 12.1 µM.

And the TGI (BT-549 breast)?
The TGI was 30.3 µM.

What about the GI50 (A549 NSCLC) of the same molecule?
Its GI50 is 11.1 µM.

What about the TGI (A549 NSCLC) of the same molecule?
Its TGI is 35.3 µM.

And the GI50 (SW-620 colon)?
Its GI50 is 2.54 µM.

What about the TGI (SW-620 colon) of the same molecule?
Its TGI is 14.5 µM.

And the GI50 (HCT-116 colon)?
The GI50 was 1.08 µM.

What about the TGI (HCT-116 colon) of the same molecule?
The TGI was 10.8 µM.

And the GI50 (OVCAR-5 ovarian)?
Its GI50 is 2.4 µM.

What about the TGI (OVCAR-5 ovarian) of the same molecule?
The TGI was 16.4 µM.

What about the GI50 (M14 melanoma) of the same molecule?
The GI50 was 4.21 µM.

What about the TGI (M14 melanoma) of the same molecule?
Its TGI is 17.7 µM.

What about the GI50 (EKVX NSCLC) of the same molecule?
Its GI50 is 4.24 µM.

What about the TGI (EKVX NSCLC) of the same molecule?
Its TGI is 22.9 µM.

And the GI50 (HOP-62 NSCLC)?
Its GI50 is 6.5 µM.

And the TGI (HOP-62 NSCLC)?
Its TGI is 20.6 µM.

What about the GI50 (OVCAR-8 ovarian) of the same molecule?
Its GI50 is 9.76 µM.

What about the TGI (OVCAR-8 ovarian) of the same molecule?
The TGI was 28.8 µM.

And the GI50 (CAKI-1 renal)?
The GI50 was 3.06 µM.

And the TGI (CAKI-1 renal)?
Its TGI is 16 µM.

And the GI50 (SK-MEL-28 melanoma)?
The GI50 was 11.3 µM.

What about the TGI (SK-MEL-28 melanoma) of the same molecule?
Its TGI is 24.8 µM.

What about the GI50 (SN12C renal) of the same molecule?
The GI50 was 4.54 µM.

What about the TGI (SN12C renal) of the same molecule?
Its TGI is 20.6 µM.

What about the GI50 (K-562 leukemia) of the same molecule?
The GI50 was 2.51 µM.

What about the TGI (K-562 leukemia) of the same molecule?
Its TGI is 13.6 µM.

And the GI50 (UACC-62 melanoma)?
Its GI50 is 4.87 µM.

And the TGI (UACC-62 melanoma)?
The TGI was 21.3 µM.

And the GI50 (MOLT-4 leukemia)?
The GI50 was 2.68 µM.

And the TGI (MOLT-4 leukemia)?
The TGI was 11.7 µM.

What about the GI50 (HCC-2998 colon) of the same molecule?
Its GI50 is 3.69 µM.

What about the TGI (HCC-2998 colon) of the same molecule?
Its TGI is 12 µM.

And the GI50 (SF-295 CNS)?
The GI50 was 2.28 µM.

And the TGI (SF-295 CNS)?
Its TGI is 17.8 µM.

What about the GI50 (HCT-15 colon) of the same molecule?
The GI50 was 3.88 µM.

And the TGI (HCT-15 colon)?
The TGI was 16.5 µM.

And the GI50 (PC-3 prostate)?
The GI50 was 2.88 µM.

What about the TGI (PC-3 prostate) of the same molecule?
Its TGI is 13.7 µM.

What about the GI50 (COLO 205 colon) of the same molecule?
Its GI50 is 3.1 µM.

What about the TGI (COLO 205 colon) of the same molecule?
Its TGI is 15.8 µM.

And the GI50 (ACHN renal)?
The GI50 was 3.96 µM.

What about the TGI (ACHN renal) of the same molecule?
The TGI was 16 µM.

And the GI50 (786-0 renal)?
The GI50 was 10 µM.

What about the TGI (786-0 renal) of the same molecule?
The TGI was 28 µM.

— PubChem BioAssay (NCI)
